The text below walks through data of patent US10709692B2, “Isoxazolidine derived inhibitors of receptor interacting protein kinase 1 (RIPK1)” (Denali Therapeutics Inc., priority 2015, dated 2020).

Several values for one entry are separate records, joined by “and”; a condition that tells them apart may be missing. Equal values may be shown once.

The target in the test is T1, receptor interacting protein kinase 1 (GST-hRIPK1 (8-327)) (Homo sapiens, UniProt Q13546).
T1 construct: GST-hRIPK1 (8-327) enzyme was generated by Proteros GmbH by Baculovirus expression system
T1 sequence (Q13546 8-327): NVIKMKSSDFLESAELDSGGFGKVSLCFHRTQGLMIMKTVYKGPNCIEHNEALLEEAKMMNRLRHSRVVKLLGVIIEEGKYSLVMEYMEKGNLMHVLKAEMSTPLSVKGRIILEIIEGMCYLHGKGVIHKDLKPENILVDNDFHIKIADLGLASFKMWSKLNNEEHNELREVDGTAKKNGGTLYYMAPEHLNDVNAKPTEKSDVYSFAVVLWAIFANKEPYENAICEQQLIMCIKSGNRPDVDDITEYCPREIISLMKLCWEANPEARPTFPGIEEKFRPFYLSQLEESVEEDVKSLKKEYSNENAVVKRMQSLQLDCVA
The test can be described thus: Fluorescent Polarization Binding (FP Binding) assay. Particulars: 10 nM GST-hRIPK1 (8-327), 5 nM fluorescent-labeled ligand, 30 min at RT. The gist of the method:
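Displacement of 5 nM fluorescent ligand from 10 nM GST-hRIPK1 (8-327), 30 min at room temperature in pH 7.5 HEPES buffer, 1% DMSO. Fluorescence polarization read (ex 531/em 595 nm); IC50 fitted from percent inhibition and averaged over at least two independent experiments.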

As usually defined, the IC50 is the concentration that inhibits the measured activity by half. A high value points to weaker potency in that assay. Consider `CC(C)(C)C(=O)N1OCC[C@H]1c1ccc(Cl)cn1` [Compound 89, 1-[(3S)-3-(5-chloropyridin-2-yl)-1,2-oxazolidin-2-yl]-2,2-dimethylpropan-1-one], for which the 50% inhibitory concentration (IC50) is below 1000 nM. For the molecule `Cc1ncc([C@@H]2CCON2C(=O)C(C)(C)C)cn1` [Compound 125, 2,2-dimethyl-1-[(3S)-3-(2-methylpyrimidin-5-yl)-1,2-oxazolidin-2-yl]propan-1-one], the IC50 is below 1000 nM. Molecule `CC(C)(C)OC(=O)N1CC(C)(C(=O)N2OCC[C@H]2c2ccc(F)cc2)C1` [Compound 44, tert-Butyl 3-[(3S)-3-(4-fluorophenyl)-1,2-oxazolidine-2-carbonyl]-3-methylazetidine-1-carboxylate] displayed an IC50 of 1000 to 10000 nM. Regarding `CC(C)(C(=O)N1OCC[C@H]1c1ccc(C(F)F)nc1)C(F)F` [Compound 221, 1-[(3S)-3-[6-(difluoromethyl)pyridin-3-yl]-1,2-oxazolidin-2-yl]-3,3-difluoro-2,2-dimethylpropan-1-one], the IC50 was < 1000 nM and 70 nM. For `CC1(C(=O)N2OCC[C@H]2c2ccc(F)nc2)CC1(F)F` (single isomer, unassigned) [Compound 113] the value was below 1000 nM; for `CC(C(=O)N1OCC[C@H]1c1ccc(C#N)cc1)C1CC1` (single isomer, unassigned) [Compound 214], below 1000 nM; for `CC(C)(CC#N)C(=O)N1OCC[C@H]1c1ccc(F)nc1` [Compound 165, 4-[(3S)-3-(6-fluoropyridin-3-yl)-1,2-oxazolidin-2-yl]-3,3-dimethyl-4-oxobutanenitrile], below 1000 nM. As to `CC1(C(=O)N2OCC[C@H]2c2ccc(F)cc2)CCCO1` (single isomer, unassigned) [Compound 136], the IC50 was in the range of 1000 to 10000 nM. For the molecule `CC(CC(F)(F)F)C(=O)N1OCC[C@H]1c1ccc(C#N)cc1` (single isomer, unassigned) [Compound 231], the 50% inhibitory concentration (IC50) is below 1000 nM. `N#Cc1cncc([C@@H]2CCON2C(=O)C(C2CC2)(C2CC2)C2CC2)c1` [Compound 242, 5-[(3S)-2-(tricyclopropylacetyl)-1,2-oxazolidin-3-yl]pyridine-3-carbonitrile] registered an IC50 of 5 nM. In other words, the single-digit nanomolar range. In turn, `Cc1cnc([C@@H]2CCON2C(=O)C(C)(C)CC#N)cn1` [Compound 104, 3,3-dimethyl-4-[(3S)-3-(5-methylpyrazin-2-yl)-1,2-oxazolidin-2-yl]-4-oxobutanenitrile] came in with an IC50 below 1000 nM.

Take `CC(C)(C(=O)N1OCC[C@H]1c1ccc(F)nc1)C(F)F` [Compound 169, 3,3-difluoro-1-[(3S)-3-(6-fluoropyridin-3-yl)-1,2-oxazolidin-2-yl]-2,2-dimethylpropan-1-one]: the 50% inhibitory concentration (IC50) was below 1000 nM. Take `CC(CC(F)(F)F)C(=O)N1OCC[C@H]1c1ccc(C#N)cc1` (single isomer, unassigned) [Compound 230]: the IC50 is below 1000 nM.

`CC(C)(C)C(=O)N1OCC[C@@H]1c1cccnc1F` [Compound 63, 1-[(3R)-3-(2-Fluoropyridin-3-yl)-1,2-oxazolidin-2-yl]-2,2-dimethylpropan-1-one] returned an IC50 of 1000 to 10000 nM. `CC(C)(C)C(=O)N1OCC[C@H]1c1ccc(F)cn1` [Compound 127, 1-[(3S)-3-(5-fluoropyridin-2-yl)-1,2-oxazolidin-2-yl]-2,2-dimethylpropan-1-one] had an IC50 below 1000 nM. For `CC1(C(=O)N2OCC[C@H]2c2ccccc2)CC(F)(F)C1` [Compound 57, (3S)-2-(3,3-difluoro-1-methylcyclobutane-carbonyl)-3-phenyl-1,2-oxazolidine] the value was below 1000 nM; for `CC(CC#N)C(=O)N1OCC[C@H]1c1ccc(C#N)cc1` (single isomer, unassigned) [Compound 210], 1000 to 10000 nM; for `CC1(C(=O)N2OCC[C@H]2c2ccc(F)cc2)CCOC1` (single isomer, unassigned) [Compound 40], below 1000 nM. `CC(C)(C(=O)N1OCC[C@H]1c1ccc(C#N)s1)C(F)F` [Compound 204, 5-[(3S)-2-(3,3-difluoro-2,2-dimethylpropanoyl)-1,2-oxazolidin-3-yl]thiophene-2-carbonitrile] gave a concentration for half-maximal inhibition (IC50) below 1000 nM. `N#CC1(C(=O)N2OCC[C@H]2c2ccc(F)cc2)CC2(COC2)C1` [Compound 172, 6-[(3S)-3-(4-fluorophenyl)-1,2-oxazolidine-2-carbonyl]-2-oxaspiro[3.3]heptane-6-carbonitrile] came in with an IC50 below 1000 nM. For `Cc1ncc([C@@H]2CCON2C(=O)C(C)(C)CC#N)cc1F` [Compound 196, 4-[(3S)-3-(5-fluoro-6-methylpyridin-3-yl)-1,2-oxazolidin-2-yl]-3,3-dimethyl-4-oxobutanenitrile] the value was < 1000 nM and 9 nM. The figure for `CC(OC(F)(F)F)C(=O)N1OCC[C@H]1c1ccc(F)cc1` (single isomer, unassigned) [Compound 183] is below 1000 nM; for `CC(C)(C)C(=O)N1OCC[C@H]1c1ccnc(F)c1` [Compound 46, 1-[(3S)-3-(2-Fluoropyridin-4-yl)-1,2-oxazolidin-2-yl]-2,2-dimethylpropan-1-one] it is below 1000 nM. Consider `CC(C)(C)C(=O)N1OCC[C@H]1c1cc[nH]n1` [Compound 190, 2,2-dimethyl-1-[(3S)-3-(1H-pyrazol-5-yl)-1,2-oxazolidin-2-yl]propan-1-one], for which the IC50 is below 1000 nM. `Cc1ncc([C@@H]2CCON2C(=O)C(C)(C)C(F)F)cn1` [Compound 126, 3,3-difluoro-2,2-dimethyl-1-[(3S)-3-(2-methylpyrimidin-5-yl)-1,2-oxazolidin-2-yl]propan-1-one]: the concentration for half-maximal inhibition (IC50) is below 1000 nM. The molecule `CC(C)(C)C(=O)N1OCC[C@H]1c1cc(Br)cc(C#N)c1` [Compound 222, 3-bromo-5-[(3S)-2-(2,2-dimethylpropanoyl)-1,2-oxazolidin-3-yl]benzonitrile] had a concentration for half-maximal inhibition (IC50) below 1000 nM. With `CC(C)(C(=O)N1OCC[C@H]1c1cccc(C#N)c1)C(F)F` [Compound 239, 3-[(3S)-2-(3,3-difluoro-2,2-dimethylpropanoyl)-1,2-oxazolidin-3-yl]benzonitrile], the concentration for half-maximal inhibition (IC50) was below 1000 nM. For `C[C@H]1C[C@@H](c2ccc(C#N)cc2)N(C(=O)C(C)(C)C)O1` (single isomer, unassigned) [Compound 99], the IC50 was below 1000 nM.

`Cc1ncc([C@@H]2CCON2C(=O)C(C)C2CC2)cc1F` (single isomer, unassigned) [Compound 218]: the IC50 is below 1000 nM. The figure for `CC(C)(C)C(=O)N1OCC[C@@H]1c1ccnc(F)c1` [Compound 45, 1-[(3R)-3-(2-Fluoropyridin-4-yl)-1,2-oxazolidin-2-yl]-2,2-dimethylpropan-1-one] is 1000 to 10000 nM; for `C[C@@]1(C(=O)N2OCC[C@H]2c2ccc(F)cc2)CCC(=O)N1` [Compound 191, (5S)-5-[(3S)-3-(4-fluorophenyl)-1,2-oxazolidine-2-carbonyl]-5-methylpyrrolidin-2-one] it is below 1000 nM; for `CC(C)(CC#N)C(=O)N1OCC[C@H]1c1ccc(C(F)F)c(C#N)c1` [Compound 228, 5-[(3S)-2-(3-cyano-2,2-dimethylpropanoyl)-1,2-oxazolidin-3-yl]-2-(difluoromethyl)benzonitrile] it is below 1000 nM. Take `Cc1ncc([C@@H]2CCON2C(=O)C(C)(C)C)cc1C#N` [Compound 219]: the IC50 was below 1000 nM.

Take `C[C@@H]1C[C@@H](c2ccc(C#N)cc2)N(C(=O)C(C)(C)C)O1` (single isomer, unassigned) [Compound 100]: the IC50 is below 1000 nM.
